Ends that are not written are not given here. Peptide text beside a SMILES is read from it. * marks the point of attachment. Biotin = O=C1N[C@H]2[C@H](CS[C@H]2CCCCC(=O)*)N1
Tests used:
Test in all cases: G' assay (10 uM PL peptide), results of TABLE 7 and TABLE 12
Format in all cases: binding
[1] = target: T1, PDZ protein (GST-PDZ fusion) (Homo sapiens, UniProt O14907); conditions: PDZ TIP1, PDZ Domain 1
T1 construct: made in house; host or cells: E. coli (DH5alpha, BL21 or JM109)
T1 sequence (O14907 1-124): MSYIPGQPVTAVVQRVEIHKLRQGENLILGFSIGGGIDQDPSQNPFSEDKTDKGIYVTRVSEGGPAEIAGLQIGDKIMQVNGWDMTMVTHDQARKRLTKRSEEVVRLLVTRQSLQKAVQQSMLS
Method in brief: (§1)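 Biotin-PL peptide (N-term label), 10 uM vs GST-PDZ; protein 5 ug/ml by default. A450 nm binned: 1 = 0-1, 2 = 1-2, 3 = 2-3, 4 = 3-4, 5 = >4 on >2 repeats, 0 = no binding.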

[2] = target: T2, PDZ protein (GST-PDZ fusion) (Homo sapiens, UniProt O15018); conditions: PDZ AIPC, PDZ Domain 1
T2 construct: made in house; host or cells: E. coli (DH5alpha, BL21 or JM109)
Method in brief: as §1

[3] = target: T3, PDZ protein (GST-PDZ fusion) (Homo sapiens, UniProt P57105); conditions: PDZ Outer Membrane, PDZ Domain 1
T3 construct: made in house; host or cells: E. coli (DH5alpha, BL21 or JM109)
T3 sequence (P57105 1-145): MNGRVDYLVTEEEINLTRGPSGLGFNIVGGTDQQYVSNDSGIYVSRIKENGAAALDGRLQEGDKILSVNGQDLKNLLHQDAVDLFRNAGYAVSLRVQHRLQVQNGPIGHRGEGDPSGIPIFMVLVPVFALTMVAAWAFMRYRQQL
Method in brief: as §1

[4] = target: T4, PDZ protein (GST-PDZ fusion) (Homo sapiens, UniProt Q12959)
T4 construct: made in house; host or cells: E. coli (DH5alpha, BL21 or JM109)
Method in brief: as §1

[5] = target: T5, PDZ protein (GST-PDZ fusion) (Homo sapiens, UniProt Q15700)
T5 construct: made in house; host or cells: E. coli (DH5alpha, BL21 or JM109)
Method in brief: as §1

[6] = target: T6, PDZ protein (GST-PDZ fusion) (Homo sapiens, UniProt Q9P202); conditions: PDZ KIAA1526, PDZ Domain 1
T6 construct: made in house; host or cells: E. coli (DH5alpha, BL21 or JM109)
T6 sequence (Q9P202 1-907): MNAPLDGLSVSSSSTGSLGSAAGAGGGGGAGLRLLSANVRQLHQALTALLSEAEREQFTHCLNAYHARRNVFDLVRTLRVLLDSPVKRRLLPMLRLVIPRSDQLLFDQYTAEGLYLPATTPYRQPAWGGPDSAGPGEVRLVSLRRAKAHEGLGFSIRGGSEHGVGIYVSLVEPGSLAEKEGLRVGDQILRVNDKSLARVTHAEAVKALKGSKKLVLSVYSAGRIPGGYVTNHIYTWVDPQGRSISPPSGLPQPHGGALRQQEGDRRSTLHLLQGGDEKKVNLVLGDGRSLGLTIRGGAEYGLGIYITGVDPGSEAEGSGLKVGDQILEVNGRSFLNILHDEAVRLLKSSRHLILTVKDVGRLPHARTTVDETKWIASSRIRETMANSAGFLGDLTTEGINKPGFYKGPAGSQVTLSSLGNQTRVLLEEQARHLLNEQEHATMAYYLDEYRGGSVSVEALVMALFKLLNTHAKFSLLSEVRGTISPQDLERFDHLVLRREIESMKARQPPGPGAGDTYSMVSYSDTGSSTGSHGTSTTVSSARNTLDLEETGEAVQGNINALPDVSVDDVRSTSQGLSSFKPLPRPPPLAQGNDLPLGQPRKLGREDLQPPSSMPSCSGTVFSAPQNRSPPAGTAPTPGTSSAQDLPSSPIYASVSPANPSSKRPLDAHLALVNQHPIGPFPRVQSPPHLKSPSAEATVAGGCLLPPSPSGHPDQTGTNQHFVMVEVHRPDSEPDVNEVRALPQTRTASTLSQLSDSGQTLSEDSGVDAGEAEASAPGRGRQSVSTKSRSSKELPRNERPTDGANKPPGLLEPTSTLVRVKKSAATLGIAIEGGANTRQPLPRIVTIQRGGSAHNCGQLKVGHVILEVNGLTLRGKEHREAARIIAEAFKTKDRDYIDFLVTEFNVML
Method in brief: as §1

[7] = target: T7, PDZ protein (GST-PDZ fusion) (Homo sapiens, UniProt Q13796); conditions: PDZ hAPXL, PDZ Domain 1
T7 construct: made in house; host or cells: E. coli (DH5alpha, BL21 or JM109)
Method in brief: as §1

T2 sequence (O15018 whole entry, the tested form may be a part): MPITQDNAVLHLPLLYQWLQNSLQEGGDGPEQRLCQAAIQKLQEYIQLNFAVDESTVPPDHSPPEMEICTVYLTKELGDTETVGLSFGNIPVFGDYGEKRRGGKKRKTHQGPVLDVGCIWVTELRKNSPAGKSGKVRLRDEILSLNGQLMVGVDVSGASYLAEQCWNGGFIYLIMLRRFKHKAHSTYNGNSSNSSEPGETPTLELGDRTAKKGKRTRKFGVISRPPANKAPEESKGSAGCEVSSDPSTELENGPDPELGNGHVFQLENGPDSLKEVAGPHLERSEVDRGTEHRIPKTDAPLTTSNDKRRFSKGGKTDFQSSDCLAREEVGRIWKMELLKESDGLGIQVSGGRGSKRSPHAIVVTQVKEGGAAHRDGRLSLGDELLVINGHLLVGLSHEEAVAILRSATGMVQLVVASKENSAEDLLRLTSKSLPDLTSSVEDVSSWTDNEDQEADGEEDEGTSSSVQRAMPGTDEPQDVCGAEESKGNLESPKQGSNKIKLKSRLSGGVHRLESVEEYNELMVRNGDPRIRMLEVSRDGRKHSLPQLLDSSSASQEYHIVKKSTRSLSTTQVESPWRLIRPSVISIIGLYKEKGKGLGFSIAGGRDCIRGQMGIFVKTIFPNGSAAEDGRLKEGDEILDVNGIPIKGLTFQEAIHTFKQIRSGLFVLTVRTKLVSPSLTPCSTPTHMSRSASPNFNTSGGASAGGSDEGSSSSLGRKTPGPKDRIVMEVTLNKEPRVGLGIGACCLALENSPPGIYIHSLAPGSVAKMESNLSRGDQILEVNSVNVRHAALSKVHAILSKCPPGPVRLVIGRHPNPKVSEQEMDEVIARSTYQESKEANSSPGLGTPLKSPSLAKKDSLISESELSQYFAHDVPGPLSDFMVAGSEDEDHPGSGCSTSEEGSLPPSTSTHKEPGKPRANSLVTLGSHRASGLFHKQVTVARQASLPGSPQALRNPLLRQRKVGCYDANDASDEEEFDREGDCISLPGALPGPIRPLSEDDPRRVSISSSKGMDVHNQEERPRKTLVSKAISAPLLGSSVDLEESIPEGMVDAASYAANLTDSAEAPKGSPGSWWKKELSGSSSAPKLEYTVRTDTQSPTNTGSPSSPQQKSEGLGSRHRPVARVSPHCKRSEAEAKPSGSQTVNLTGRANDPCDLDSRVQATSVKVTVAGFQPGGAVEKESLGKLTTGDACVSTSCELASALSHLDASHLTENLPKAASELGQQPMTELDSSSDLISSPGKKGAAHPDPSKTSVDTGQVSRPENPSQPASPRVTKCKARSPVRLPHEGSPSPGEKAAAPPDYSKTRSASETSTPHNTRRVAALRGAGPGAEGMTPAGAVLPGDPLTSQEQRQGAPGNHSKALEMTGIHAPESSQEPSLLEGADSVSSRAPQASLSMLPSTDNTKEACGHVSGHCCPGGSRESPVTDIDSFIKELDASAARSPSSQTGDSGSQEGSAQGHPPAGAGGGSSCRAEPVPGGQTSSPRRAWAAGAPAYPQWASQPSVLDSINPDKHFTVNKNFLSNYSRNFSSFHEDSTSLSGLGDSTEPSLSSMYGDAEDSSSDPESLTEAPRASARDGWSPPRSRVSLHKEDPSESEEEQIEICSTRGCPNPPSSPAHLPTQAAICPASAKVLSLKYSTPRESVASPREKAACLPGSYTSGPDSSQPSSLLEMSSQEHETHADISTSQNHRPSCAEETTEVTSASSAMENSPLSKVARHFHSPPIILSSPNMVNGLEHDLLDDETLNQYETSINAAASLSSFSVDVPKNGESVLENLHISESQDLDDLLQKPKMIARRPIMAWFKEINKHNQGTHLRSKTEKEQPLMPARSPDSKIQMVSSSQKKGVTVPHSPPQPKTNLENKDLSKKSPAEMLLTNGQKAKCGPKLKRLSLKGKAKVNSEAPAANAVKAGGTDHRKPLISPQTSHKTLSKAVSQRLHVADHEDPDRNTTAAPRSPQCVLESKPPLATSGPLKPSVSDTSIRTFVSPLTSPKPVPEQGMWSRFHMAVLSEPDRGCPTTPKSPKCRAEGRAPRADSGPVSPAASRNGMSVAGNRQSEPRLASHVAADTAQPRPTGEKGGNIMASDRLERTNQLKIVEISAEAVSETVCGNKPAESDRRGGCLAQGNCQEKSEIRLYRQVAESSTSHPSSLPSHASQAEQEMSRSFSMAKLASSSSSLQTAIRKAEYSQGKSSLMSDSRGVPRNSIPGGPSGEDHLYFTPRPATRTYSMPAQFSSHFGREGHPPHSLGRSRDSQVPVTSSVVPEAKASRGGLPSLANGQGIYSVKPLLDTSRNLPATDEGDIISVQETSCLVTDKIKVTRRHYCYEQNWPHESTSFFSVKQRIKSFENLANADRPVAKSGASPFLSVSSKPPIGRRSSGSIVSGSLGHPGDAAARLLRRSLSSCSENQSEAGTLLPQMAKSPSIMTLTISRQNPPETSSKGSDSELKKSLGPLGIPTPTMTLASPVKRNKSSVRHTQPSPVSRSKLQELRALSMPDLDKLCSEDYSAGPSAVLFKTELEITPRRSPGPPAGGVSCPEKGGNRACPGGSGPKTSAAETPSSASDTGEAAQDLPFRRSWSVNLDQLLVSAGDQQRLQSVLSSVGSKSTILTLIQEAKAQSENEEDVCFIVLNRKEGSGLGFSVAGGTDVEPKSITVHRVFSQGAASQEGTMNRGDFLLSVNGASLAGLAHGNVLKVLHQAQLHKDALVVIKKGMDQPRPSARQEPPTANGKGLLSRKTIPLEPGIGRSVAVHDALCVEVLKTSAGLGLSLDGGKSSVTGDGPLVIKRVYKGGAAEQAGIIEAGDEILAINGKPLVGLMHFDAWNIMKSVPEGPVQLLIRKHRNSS
T7 sequence (Q13796 whole entry, the tested form may be a part): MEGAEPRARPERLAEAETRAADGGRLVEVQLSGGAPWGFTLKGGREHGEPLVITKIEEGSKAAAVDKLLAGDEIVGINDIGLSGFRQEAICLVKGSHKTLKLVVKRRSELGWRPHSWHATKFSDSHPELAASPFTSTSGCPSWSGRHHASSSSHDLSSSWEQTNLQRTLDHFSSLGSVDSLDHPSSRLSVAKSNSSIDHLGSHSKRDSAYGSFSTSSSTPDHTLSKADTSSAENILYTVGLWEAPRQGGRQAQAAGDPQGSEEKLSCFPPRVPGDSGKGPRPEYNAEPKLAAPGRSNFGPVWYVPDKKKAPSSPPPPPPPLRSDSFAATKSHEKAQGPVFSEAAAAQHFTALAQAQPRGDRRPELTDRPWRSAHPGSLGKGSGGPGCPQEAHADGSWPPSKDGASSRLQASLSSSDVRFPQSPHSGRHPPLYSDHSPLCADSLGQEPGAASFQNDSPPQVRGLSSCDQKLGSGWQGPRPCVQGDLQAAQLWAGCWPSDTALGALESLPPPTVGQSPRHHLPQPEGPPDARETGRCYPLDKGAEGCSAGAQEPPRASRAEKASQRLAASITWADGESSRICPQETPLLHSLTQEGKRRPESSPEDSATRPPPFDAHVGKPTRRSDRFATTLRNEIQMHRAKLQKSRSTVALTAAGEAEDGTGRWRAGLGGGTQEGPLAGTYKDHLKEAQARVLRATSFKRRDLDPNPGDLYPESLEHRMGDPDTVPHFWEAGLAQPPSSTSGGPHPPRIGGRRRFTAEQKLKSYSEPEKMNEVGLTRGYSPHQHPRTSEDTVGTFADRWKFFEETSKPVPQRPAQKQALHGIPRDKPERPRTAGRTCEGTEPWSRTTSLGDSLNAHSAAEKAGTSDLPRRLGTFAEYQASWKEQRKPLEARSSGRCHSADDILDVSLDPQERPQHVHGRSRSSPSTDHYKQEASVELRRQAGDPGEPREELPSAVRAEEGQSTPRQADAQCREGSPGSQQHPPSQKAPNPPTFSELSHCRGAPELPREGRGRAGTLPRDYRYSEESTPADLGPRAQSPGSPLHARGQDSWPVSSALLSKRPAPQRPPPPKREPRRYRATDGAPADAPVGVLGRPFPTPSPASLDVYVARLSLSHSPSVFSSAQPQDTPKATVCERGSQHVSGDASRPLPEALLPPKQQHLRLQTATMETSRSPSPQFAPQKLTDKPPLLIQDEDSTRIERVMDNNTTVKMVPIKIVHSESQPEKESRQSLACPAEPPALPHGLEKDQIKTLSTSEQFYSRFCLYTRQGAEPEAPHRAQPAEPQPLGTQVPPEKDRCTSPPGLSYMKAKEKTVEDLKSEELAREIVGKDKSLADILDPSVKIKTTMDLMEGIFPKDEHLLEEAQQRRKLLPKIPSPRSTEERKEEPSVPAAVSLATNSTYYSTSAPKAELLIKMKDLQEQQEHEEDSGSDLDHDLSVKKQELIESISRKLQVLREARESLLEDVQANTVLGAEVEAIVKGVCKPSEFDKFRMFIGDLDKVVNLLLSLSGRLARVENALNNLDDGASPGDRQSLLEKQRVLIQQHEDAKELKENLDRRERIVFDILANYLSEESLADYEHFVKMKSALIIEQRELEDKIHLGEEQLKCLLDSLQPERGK

Compound	Classification [1]	Classification [2]	Classification [3]	Classification ([4]; PDZ DLG1, PDZ Domain 1, 2)	Classification ([4]; PDZ DLG1, PDZ Domain 2)	Classification ([5]; PDZ DLG2, PDZ Domain 2)	Classification [6]	Classification [7]	Classification ([4]; PDZ DLG1, PDZ Domain 1)	Classification ([4]; PDZ DLG1, PDZ Domain 3)	Classification ([5]; PDZ DLG2, PDZ Domain 1)
A2AA_HUMAN (modified) (Biotin-HDFRRAFKKILARGDRKRIV; not fully specified)	–	2 (A450 nm 1-2)	–	–	–	–	4 (A450 nm 3-4)	1 (A450 nm 0-1)	–	–	–
CC(C)C[C@H](NC(=O)[C@H](CCCNC(=N)N)NC(=O)CNC(=O)CNC(=O)[C@H](CCCNC(=N)N)NC(=O)[C@H](C)NC(=O)[C@@H]1CCCN1C(=O)[C@H](CCCNC(=N)N)NC(=O)CNC(=O)CNC(=O)[C@@H](NC(=O)[C@H](C)NC(=O)CCCC[C@@H]1SC[C@@H]2NC(=O)N[C@@H]21)C(C)C)C(=O)N[C@@H](CCC(N)=O)C(=O)NCC(=O)N[C@@H](CCCNC(=N)N)C(=O)N[C@@H](CCCNC(=N)N)C(=O)N[C@@H](CCC(N)=O)C(=O)N[C@H](C(=O)N[C@@H](CCC(N)=O)C(=O)N[C@H](C(=O)O)C(C)C)[C@@H](C)O [HPV E6 58 (modified)] (Biotin-AVGGRPARGGRLQGRRQTQV-OH; C-terminus assumed)	4 (A450 nm 3-4)	–	5 (A450 nm of 4 more than 2× repeated)	–	5 (A450 nm of 4 more than 2× repeated)	5 (A450 nm of 4 more than 2× repeated)	1 (A450 nm 0-1)	–	5 (A450 nm of 4 more than 2× repeated)	–	–
CC[C@H](C)[C@H](NC(=O)[C@H](CO)NC(=O)[C@@H](NC(=O)[C@H](Cc1ccccc1)NC(=O)[C@H](CO)NC(=O)CCCC[C@@H]1SC[C@@H]2NC(=O)N[C@@H]21)[C@@H](C)O)C(=O)N[C@@H](CC(C)C)C(=O)N[C@H](C(=O)N[C@@H](CS)C(=O)N[C@@H](Cc1c[nH]cn1)C(=O)N[C@@H](CCC(N)=O)C(=O)N[C@@H](CCCNC(=N)N)C(=O)N[C@@H](CCCNC(=N)N)C(=O)N[C@H](C(=O)N[C@@H](CCC(N)=O)C(=O)N[C@@H](CCCNC(=N)N)C(=O)N[C@@H](CCCCN)C(=O)N[C@@H](CCC(=O)O)C(=O)N[C@H](C(=O)N[C@H](C(=O)N[C@@H](C)C(=O)O)C(C)C)[C@@H](C)O)[C@@H](C)O)[C@@H](C)O [GluR5-2 (rat)]	–	–	–	5 (A450 nm of 4 more than 2× repeated)	2 (A450 nm 1-2)	1 (A450 nm 0-1)	–	–	2 (A450 nm 1-2)	1 (A450 nm 0-1)	1 (A450 nm 0-1)
CC[C@H](C)[C@H](NC(=O)[C@H](CCC(=O)O)NC(=O)[C@H](CC(N)=O)NC(=O)[C@H](CCCNC(=N)N)NC(=O)[C@H](Cc1ccccc1)NC(=O)[C@H](CC(N)=O)NC(=O)[C@H](CO)NC(=O)[C@H](CC(N)=O)NC(=O)[C@H](CCC(=O)O)NC(=O)[C@H](CO)NC(=O)[C@H](CC(=O)O)NC(=O)[C@H](CO)NC(=O)[C@@H](NC(=O)[C@@H](NC(=O)[C@H](CC(=O)O)NC(=O)[C@H](CCCCN)NC(=O)CCCC[C@@H]1SC[C@@H]2NC(=O)N[C@@H]21)[C@@H](C)CC)[C@@H](C)O)C(=O)N[C@@H](CCC(N)=O)C(=O)N[C@@H](CO)C(=O)N[C@@H](CC(C)C)C(=O)N[C@H](C(=O)O)C(C)C [CD95] (Biotin-KDITSDSENSNFRNEIQSLV-OH; C-terminus assumed)	–	1 (A450 nm 0-1)	1 (A450 nm 0-1)	–	1 (A450 nm 0-1)	1 (A450 nm 0-1)	–	–	–	–	–
CC[C@H](C)[C@H](NC(=O)[C@H](CCC(N)=O)NC(=O)CCCC[C@@H]1SC[C@@H]2NC(=O)N[C@@H]21)C(=O)N[C@@H](CO)C(=O)N1CCC[C@H]1C(=O)NCC(=O)NCC(=O)N[C@@H](CC(C)C)C(=O)N[C@@H](CCC(=O)O)C(=O)N1CCC[C@H]1C(=O)N1CCC[C@H]1C(=O)N[C@@H](CO)C(=O)N[C@@H](CCC(=O)O)C(=O)N[C@@H](CCCCN)C(=O)N[C@@H](Cc1c[nH]cn1)C(=O)N[C@@H](Cc1ccccc1)C(=O)N[C@@H](CCCNC(=N)N)C(=O)N[C@@H](CCC(=O)O)C(=O)N[C@H](C(=O)N[C@@H](CCC(=O)O)C(=O)N[C@H](C(=O)O)C(C)C)[C@@H](C)O [Tax]	–	1 (A450 nm 0-1)	5 (A450 nm of 4 more than 2× repeated)	–	5 (A450 nm of 4 more than 2× repeated)	5 (A450 nm of 4 more than 2× repeated)	3 (A450 nm 2-3)	–	5 (A450 nm of 4 more than 2× repeated)	–	2 (A450 nm 1-2)

Further lines, with some results ahead:

Classification [1]	Classification [2]	Classification [3]	Classification ([4]; PDZ DLG1, PDZ Domain 1, 2)	Classification ([4]; PDZ DLG1, PDZ Domain 2)	Classification ([5]; PDZ DLG2, PDZ Domain 2)	Classification [6]	Classification [7]	Compound	Classification ([4]; PDZ DLG1, PDZ Domain 1)	Classification ([4]; PDZ DLG1, PDZ Domain 3)	Classification ([5]; PDZ DLG2, PDZ Domain 1)
3 (A450 nm 2-3)	2 (A450 nm 1-2)	5 (A450 nm of 4 more than 2× repeated)	3 (A450 nm 2-3)	2 (A450 nm 1-2)	1 (A450 nm 0-1)	2 (A450 nm 1-2)	–	PYSELNYETSHYPASPDSWV (Biotin-PYSELNYETSHYPASPDSWV) [catenin - delta 2]	1 (A450 nm 0-1)	–	–
5 (A450 nm of 4 more than 2× repeated)	2 (A450 nm 1-2)	1 (A450 nm 0-1)	1 (A450 nm 0-1)	1 (A450 nm 0-1)	–	1 (A450 nm 0-1)	5 (A450 nm of 4 more than 2× repeated)	CC(C)C[C@H](NC(=O)[C@H](CC(=O)O)NC(=O)[C@H](CO)NC(=O)[C@H](CCC(=O)O)NC(=O)CNC(=O)[C@H](Cc1ccc(O)cc1)NC(=O)[C@H](CC(C)C)NC(=O)[C@H](C)NC(=O)[C@H](CO)NC(=O)[C@H](CO)NC(=O)[C@H](Cc1ccccc1)NC(=O)[C@H](C)NC(=O)[C@H](C)NC(=O)[C@H](Cc1ccc(O)cc1)NC(=O)[C@H](CC(=O)O)NC(=O)[C@H](CC(C)C)NC(=O)[C@H](C)NC(=O)CNC(=O)[C@@H]1CCCN1C(=O)[C@@H](NC(=O)CCCC[C@@H]1SC[C@@H]2NC(=O)N[C@@H]21)C(C)C)C(=O)O [a-actinin 2] (Biotin-VPGALDYAAFSSALYGESDL-OH; C-terminus assumed)	–	–	–
–	–	1 (A450 nm 0-1)	–	–	–	1 (A450 nm 0-1)	1 (A450 nm 0-1)	PPATPSPRLALPAHHNATRL (Biotin-PPATPSPRLALPAHHNATRL) [Na+/Pi cotransporter 2]	–	–	–
–	–	4 (A450 nm 3-4)	2 (A450 nm 1-2)	1 (A450 nm 0-1)	1 (A450 nm 0-1)	–	–	CC[C@H](C)[C@H](NC(=O)[C@H](CCC(=O)O)NC(=O)[C@H](CO)NC(=O)[C@H](CCC(=O)O)NC(=O)[C@H](CCCNC(=N)N)NC(=O)[C@H](CCCNC(=N)N)NC(=O)[C@H](CC(C)C)NC(=O)[C@@H]1CCCN1C(=O)[C@H](CCCNC(=N)N)NC(=O)[C@@H]1CCCN1C(=O)[C@H](CCC(=O)O)NC(=O)[C@H](CC(C)C)NC(=O)[C@@H]1CCCN1C(=O)[C@@H](NC(=O)[C@H](CO)NC(=O)[C@H](C)NC(=O)[C@H](CCC(N)=O)NC(=O)[C@H](CC(N)=O)NC(=O)[C@H](Cc1c[nH]cn1)NC(=O)[C@H](CC(C)C)NC(=O)CCCC[C@@H]1SC[C@@H]2NC(=O)N[C@@H]21)C(C)C)C(=O)O [Kir2.1 (inwardly rect. K+ channel)] (Biotin-LHNQASVPLEPRPLRRESEI-OH; C-terminus assumed)	–	–	–
–	2 (A450 nm 1-2)	–	2 (A450 nm 1-2)	1 (A450 nm 0-1)	1 (A450 nm 0-1)	–	–	GGGGGSGGGGGSGIESVKI [GLUR2 (glutamate receptor 2-modified)]	–	–	–
